One compound from patent publication US11053248B2, “[1,2,4]triazolo[1,5-a]pyrimidine compounds as PDE2 inhibitors” (Janssen Pharmaceutica NV, priority 2016, dated 2021) can be followed below.

Usually Emax stands for the maximal effect, on the per cent scale that the assay sets. One may read the melting point as the temperature of the solid-liquid transition.

One series concerns the target hPDE10A2 (Homo sapiens, UniProt Q9Y233). Nature of the series: biochemical.
The nature of the next series: Solubility (as reported). The note with it: in words. The class given is physicochemical.
A further series concerns the target T1, hPDE2A (Homo sapiens, UniProt O00408).
T1 construct: made in house; host or cells: Sf9 insect cells (baculovirus)
In words: In vitro assay PDE2A (SPA, 3H-cGMP). The class given is biochemical. In outline:
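Sf9-expressed, Ni-sepharose-purified enzyme in 50 mM Tris pH 7.8, 8.3 mM MgCl2, 1.7 mM EGTA with 10 μM cGMP plus 0.01 μCi 3H-cGMP (final), 1% DMSO. Reaction 45 min at room temperature; SPA bead radioactivity counted as cpm, blanks without enzyme, controls with DMSO instead of compound.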

T1 sequence (O00408 whole entry): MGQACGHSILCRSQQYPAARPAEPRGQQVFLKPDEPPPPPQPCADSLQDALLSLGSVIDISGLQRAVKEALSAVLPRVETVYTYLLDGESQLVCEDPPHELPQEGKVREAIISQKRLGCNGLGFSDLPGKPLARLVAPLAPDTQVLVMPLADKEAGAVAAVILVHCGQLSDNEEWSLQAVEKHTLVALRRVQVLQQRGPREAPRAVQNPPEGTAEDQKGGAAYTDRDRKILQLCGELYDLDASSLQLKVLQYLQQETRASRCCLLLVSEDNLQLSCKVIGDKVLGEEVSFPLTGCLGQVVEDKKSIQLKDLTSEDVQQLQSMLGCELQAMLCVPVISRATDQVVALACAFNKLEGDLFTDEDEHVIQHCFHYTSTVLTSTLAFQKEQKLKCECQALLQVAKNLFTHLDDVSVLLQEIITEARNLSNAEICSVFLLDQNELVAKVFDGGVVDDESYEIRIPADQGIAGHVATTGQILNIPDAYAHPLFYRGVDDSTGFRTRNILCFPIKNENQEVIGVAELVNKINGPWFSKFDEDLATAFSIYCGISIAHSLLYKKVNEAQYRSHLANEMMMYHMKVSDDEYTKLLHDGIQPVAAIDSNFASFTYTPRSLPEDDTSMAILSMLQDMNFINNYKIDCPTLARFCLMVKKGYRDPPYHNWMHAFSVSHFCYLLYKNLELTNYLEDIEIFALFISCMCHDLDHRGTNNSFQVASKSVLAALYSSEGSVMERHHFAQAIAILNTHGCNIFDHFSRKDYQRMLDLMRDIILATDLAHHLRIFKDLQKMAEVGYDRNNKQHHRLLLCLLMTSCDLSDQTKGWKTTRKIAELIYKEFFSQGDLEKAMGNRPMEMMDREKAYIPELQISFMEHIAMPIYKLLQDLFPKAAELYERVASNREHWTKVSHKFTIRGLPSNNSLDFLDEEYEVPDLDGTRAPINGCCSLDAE
Chain of hPDE10A2 (Q9Y233 267-1055): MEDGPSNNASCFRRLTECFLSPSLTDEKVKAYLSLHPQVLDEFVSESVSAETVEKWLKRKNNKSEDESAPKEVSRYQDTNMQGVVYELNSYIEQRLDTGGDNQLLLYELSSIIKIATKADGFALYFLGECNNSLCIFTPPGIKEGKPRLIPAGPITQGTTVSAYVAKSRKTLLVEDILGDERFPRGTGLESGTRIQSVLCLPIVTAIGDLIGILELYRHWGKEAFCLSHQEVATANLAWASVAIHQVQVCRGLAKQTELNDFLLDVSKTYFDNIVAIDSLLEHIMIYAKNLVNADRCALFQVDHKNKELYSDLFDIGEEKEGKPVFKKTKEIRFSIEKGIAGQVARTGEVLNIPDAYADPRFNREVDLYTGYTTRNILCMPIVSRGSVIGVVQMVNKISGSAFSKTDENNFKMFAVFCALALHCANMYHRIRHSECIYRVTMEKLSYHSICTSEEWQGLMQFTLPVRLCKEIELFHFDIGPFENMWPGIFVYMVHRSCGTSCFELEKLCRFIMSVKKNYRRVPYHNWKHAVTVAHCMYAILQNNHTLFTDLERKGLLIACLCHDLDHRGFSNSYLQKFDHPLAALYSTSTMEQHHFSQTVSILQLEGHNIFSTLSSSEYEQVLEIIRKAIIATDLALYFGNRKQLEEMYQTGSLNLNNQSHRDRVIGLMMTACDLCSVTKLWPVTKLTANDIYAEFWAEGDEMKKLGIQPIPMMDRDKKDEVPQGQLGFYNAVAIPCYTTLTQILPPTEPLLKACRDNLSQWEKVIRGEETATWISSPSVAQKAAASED

As for `C[C@@H]1CCN(c2nccc3ccc(Br)cc23)C[C@H]1c1cc(C(F)F)nc2ncnn12` [Compound 1], the melting point stood at 129.91 °C. The IC50 on hPDE10A2 (60 nM cAMP substrate, read-out: hPDE10A2 pIC50 (converted)) was 550 nM. Moreover, the maximum response (Emax) at hPDE10A2 (read-out: hPDE10A2 Emax) was 98%. In addition, the solubility entry in the series “Solubility (as reported)” is on record as “poor”. The IC50 at hPDE2A (10 μM cGMP substrate, read-out: hPDE2A pIC50 (converted)) was 2.24 nM. Besides, the Emax at hPDE2A (read-out: hPDE2A Emax) is 96%.
